Columns and labels:
Assay type in all cases: cell-based
[1] = biological target: T1, GPR34 (Homo sapiens, UniProt Q9UPC5); assay: MAPK activation: phosphorylation of ERK1/2 in human GPR34-expressed CHO cells (western blotting); details: human GPR34-expressed CHO cells
T1 construct: expressed in transfected cells
Procedure: The cells were prepared as described below. Human GPR34-expressed CHO cells were scraped off with 0.05% trypsin-EDTA (GIBCO) and suspended in a medium (MEM-α (GIBCO), supplemented with 10% FBS (GIBCO) and penicillin/streptomycin (BIOWHITTAKER)). After centrifugation, the cells precipitated were suspended in the medium in 2×10^5 cells/ml and a 1 mL aliquot was plated on a 35 mm cell culture dish. After incubation overnight in a CO2 incubator, the medium was aspirated and washed in PBS. Then 1 mL of serum-free medium (MEM-α (GIBCO), supplemented with penicillin/streptomycin (BIOWHITTAKER)) and incubation was performed in a CO2 incubator. Pertussis toxin (hereinafter PTX) was added in a final concentration of 0.1 μg/mL 20 hours before the assay.
The cells were activated as follows. The medium was aspirated and washed in PBS. Thereafter, 500 μL of assay buffer (HBSS (GIBCO), 10 mM HEPES (Dojin Chemical Laboratory)) was added to perform preincubation for 15 minutes at 37° C. The lysoPS solution and […] of PECGF ([…] cell growth factor) solution as a positive control were added. After the mixture was incubated at 37° C., the reaction was terminated by quenching. The assay buffer was aspirated and washed in PBS. Then, 1×SDS sample buffer/DTT was added to the cells to recover the cells. After ultrasonication for 15 seconds, heating at 95° C. for 5 minutes was followed by quenching.
Detection by SDS-PAGE and western blotting were performed as follows. After separation using 10% Bis-Tris gel (Invitrogen), the gel was transferred to Immuno-Blot PVDF Membrane (Bio-Rad). The membrane was blocked with Block Ace (Dai-Nippon Pharmaceutical) and incubated at room temperature for an hour with a primary antibody (Phospho-p42/p44 MAP Kinase (Thr202/Thr204) Antibody (CST) or p42/p44 MAP Kinase Antibody (CST)) and further incubated at room temperature for an hour using a secondary antibody (Anti-rabbit IgG (CST)). The membrane after the antibody reaction was visualized by chemiluminescence using ECL PLUS (Amersham Biosciences). […]

[2] = biological target: T1, GPR34; assay: Intracellular cAMP production inhibitory activity on GPR34-expressed CHO cells (forskolin stimulated); details: phosphatidylserine in a higher concentration
Procedure: The GPR34-expressed CHO cells prepared in (1-2) described above and selected in (1-3) described above were plated on a 24-well plate in 6×10^4 cells/well followed by incubation for 48 hours. The cells were washed with αMEM medium (pH 7.5) containing 0.2 mM 3-isobutylmethylxanthine, 0.05% BSA and 20 mM HEPES (hereinafter αMEM medium (pH 7.5) containing 0.2 mM 3-isobutylmethylxanthine, 0.05% BSA and 20 mM HEPES is referred to as the reaction buffer). Thereafter, 0.5 mL of the reaction buffer was added and the mixture was kept warm for 30 minutes in an incubator. The reaction buffer was removed and 0.25 mL of fresh reaction buffer was replenished to the cells. Then, 0.25 mL of the reaction buffer containing a sample and 2 μM forskolin was added to the cells, followed by reacting at 37° C. for 30 minutes. The reaction solution was removed and 0.5 mL of the cell lysis solution attached to cAMP EIA kit (Applied Biosystems) to extract cAMP in the cells. The cAMP level in the extract was quantified using the same kit. Based on this measurement data, the cAMP production inhibitory activity was calculated based on the equation shown below and expressed in terms of percentage to the control group. […]

[3] = system: rat primary culture microglial cells (PMGC); assay: Expression of cytokine genes in activated PMGC (TaqMan PCR); details: lysoPS 5 μM, LPS 1 μg/ml, IFN-α 1 ng/ml
Procedure: In order to examine the action of lysoPS on the activation of microglia, actions induced by the addition of lysoPS in PMGC activated by LPS stimulation was examined in the presence of IFN-α. PMGC, which was prepared from the brain of rat of one day old on the preceding day, was plated on a 24-well plate (Falcon 353047) at 50000 cells/well, and IFN-α (1 ng/ml, Biovision) was added 6 hours after. On the following day, lysoPS (5 μM) was added upon stimulation by LPS (1 μg/ml), and comparison was made between the presence and absence of lysoPS if cytokine production was affected. RNA was prepared as in the procedure described in EXAMPLE 4 for 2 and 8 hours after addition or without addition of LPS and lysoPS (5 μM). The sequencing information of the primers, probe and standard used for TaqMan are as described above. The cytokine production was compared by TaqMan PCR in terms of changes in expression levels of cytokine genes.

T1 sequence (Q9UPC5 whole entry): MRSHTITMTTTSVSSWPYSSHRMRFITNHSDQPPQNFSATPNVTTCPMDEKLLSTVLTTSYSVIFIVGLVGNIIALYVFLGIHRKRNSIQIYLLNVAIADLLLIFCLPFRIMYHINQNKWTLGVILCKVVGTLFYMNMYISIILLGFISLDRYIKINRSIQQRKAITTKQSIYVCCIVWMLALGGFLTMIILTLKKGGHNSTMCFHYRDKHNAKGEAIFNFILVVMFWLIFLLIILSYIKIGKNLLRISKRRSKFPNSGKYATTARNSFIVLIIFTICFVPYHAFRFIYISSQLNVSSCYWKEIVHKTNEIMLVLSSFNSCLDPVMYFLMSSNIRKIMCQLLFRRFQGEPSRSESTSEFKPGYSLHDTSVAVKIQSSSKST

## lysophosphatidylserine [lysoPS]
[1]
  phosphorylation of ERK1/2 30 minutes after the stimulation: the phosphorylation was noted
  time of maximum response of ERK1/2 phosphorylation after the stimulation: about 5 minutes
[2]
  cAMP production inhibitory activity: marked activities
[3]; 2 hours after the addition
  expression of inflammatory cytokine IL-6: tendency to suppress the expression
  expression of inflammatory cytokine TNF-α: tendency to suppress the expression
[3]; 8 hours after
  expression of anti-inflammatory cytokine IL-10: tendency to increase its expression

From US7951548B2, “IL-13 production inhibitor” (Takeda Pharmaceutical Company Limited, priority 2005, dated 2011)
